Among the data in paper PMC10720248 (Frontiers in Chemistry, 2023) are Km values, retold here.

Structures are written as SMILES.

This experiment has as its system TLBro. The following applies: pH 8.0, 37°C, 10 mM Tris-HCl, 100 mM NaCl, 10 mM CaCl2.

As for `N=C(N)NCCCC(NC(=O)c1ccccc1)C(=O)Nc1ccc([N+](=O)[O-])cc1` (racemic) [DL-BAρNA, N-benzoyl-L-arginine-ρ-nitroanilide], the Km (as a rule, the concentration of substrate that gives half-maximal velocity) is 850 µM.
